Data on ten compounds can be found in patent publication US20120107275A1, “FUSED HETEROCYCLIC DERIVATIVES AND METHODS OF USE” (Amgen Inc., priority 2006, published 2012).

SMILES strings stand for the structures. pIC50, pKi: −log10 of the molar value. Bounds are passed on as bounds.

One may read the pIC50 as −log10 of the IC50, conventionally taken in molar units. High values mean a small IC50, low ones a large IC50. Broadly, the pKi is −log10 of the Ki, conventionally taken in molar units. Lower therefore signals a high Ki.

Experiment [1] concerns the target T1, c-Met (Homo sapiens, UniProt P08581).
T1 construct: host or cells: PC3 (human)
Nature of the experiment: c-Met cell-based autophosphorylation assay, PC3 cells (HGF stimulated, IGEN readout). The settings on record: HGF 250 ng/mL. As for the experimental part: (§1) c-Met Cell-Based Autophosphorylation Assay
(§2) Human PC3 and mouse CT26 cells are available obtained from ATCC. […] 2×10^4 cells in medium were plated per well in a 96 well plate and incubated at 37° C. overnight. The cells were serum-starved by replacing the growth media with basic medium (DMEM low glucose+0.1 BSA, 120 μL per well) at 37° C. for 16 h. […] Compound samples (2.4 μL per well) were diluted with basic medium (240 μL) in a 96 well plate. […] The cells were incubated at 37° C. for 1 h. A (2 mg/mL) solution of CHO-HGF (7.5 μL) was diluted with 30 mL basic medium to provide a final concentration of 500 ng/mL. This HGF-containing media (120 μL) was transferred to a 96 well plate. Compounds (1.2 μL) was added to the HGF-containing media and mixed well.
(§3) BSA/0.1% Tween20) by rotating for 30 min at RT. Antibody beads (25 μL) were transferred to a 96 well plate. Cell lysate solution (25 μL) was transferred added and the plate was shaken at RT for 1 h. […] 1×PBS (175 μL) was added to each well and the electrochemiluminescence was read by an IGEN M8. Raw data was analyzed using a 4-parameter fit equation in XLFit. IC50 values are then determined using Grafit software.

The target in experiment [2] is T2, c-Met (Mus musculus, UniProt P16056).
T2 construct: host or cells: CT26 (mouse)
The experiment in a line: c-Met cell-based autophosphorylation assay, CT26 cells (HGF stimulated, IGEN readout). The following applies: HGF 250 ng/mL. The protocol: as §1, §2, §3

The target in experiment [3] is T3, c-Met kinase domain (GST-cMet) (Homo sapiens, UniProt P08581).
T3 construct: A PCR product covering residues 1058-1365 of c-Met (c-Met kinase domain); made in house; host or cells: High5 insect cells (baculovirus, BacToBac)
Nature of the experiment: c-Met receptor assay (HTRF kinase assay with GST-cMet (P) enzyme, gastrin and ATP). It is filed as biochemical. The settings on record: for pIC50: c-Met receptor assay; for pKi: illustrative activity values, HTRF kinase assay with GST-cMet (P) enzyme. The protocol:
Cloning, Expression and Purification of c-Met Kinase Domain
The PCR product is cloned into a modified pFastBac1 expression vector (harboring the gene for S. japonicum glutathione S-transferase immediately upstream of the multiple cloning site) using standard molecular biological techniques. The GST-c-Met kinase domain fusion (GST-Met) gene is transposed into full-length baculovirus DNA using the BacToBac™ system (Invitrogen). High5 cells are infected with the recombinant baculovirus for 72 h at 27° C. The infected cells are harvested by centrifugation and the pellet is stored at −80° C. The pellet is resuspended in buffer A (50 mM HEPES, pH 8.0, 0.25 M NaCl, 10 mM 2-mercaptoethanol, 10% (w/v) glycerol, 0.5% (v/v) protease inhibitor cocktail (Sigma P8340), stirred at 4° C. to homogeneity, and the cells are disrupted by microfluidization (Microfluidics) at 10,000 psi. The resulting lysate is centrifuged at 50,000×g for 90 min at 4° C., and the supernatant is adsorbed onto 10 mL of glutathione Sepharose™ 4B (Amersham) by batch method. The slurry is rocked gently overnight at 4° C. The glutathione resin is harvested by centrifugation and washed three times with 40 mL buffer A by batch method. The resin is washed three times with buffer B (buffer A adjusted to 0.1 M NaCl, less protease inhibitors). The protein is eluted with buffer B containing 25 mM reduced glutathione. Eluted fractions are analyzed by SDS-PAGE and concentrated to <10 mL (˜10 mg/mL total protein). The concentrated protein is separated by Superdex™ 200 (Amersham) size exclusion chromatography in buffer C (25 mM Tris, pH 7.5, 0.1 M NaCl, 10 mM 2-mercaptoethanol, 10% glycerol). The fractions are analyzed by SDS-PAGE and the appropriate fractions are pooled and concentrated to ˜1 mg/mL. The protein is aliquotted and stored at −80° C.
Alternative Purification of Human GST-cMET from Baculovirus Cells
The resin is washed with 10 column volumes (100 mL) of Lysis Buffer. […] The elution is collected as 15 mL fractions. Aliquots of the elution fractions are run on SDS PAGE (12% Tris Glycine gel, Invitrogen, #EC6005BOX). The gel is stained with 0.25% Coomassie Blue stain. Fractions with GST-cMET are concentrated with a Vivaspin 20 mL Concentrator (#VS2002; […]) to a final volume less than 2.0 ml. […] The GST-cMET is eluted with an isocratic run of the above buffer, with the eluent collected in 1.0 mL fractions. Fractions with significant OD280 readings are run on another 12% Tris Glycine gel. The peak tubes with GST-cMET are pooled and the OD280 is read with the column buffer listed above as the blank buffer.
Phosphorylation of the purified GST-cMET is performed by incubating the protein for 3 h at RT with the following:
After incubation, the solution is concentrated in a Vivaspin 20 ml Concentrator to a volume less than 2.00 ml. The solution is applied to the same Superdex 75 16/60 column used above after re-equilibration. The GST-cMET is eluted as described above. The elution fractions corresponding to the first eluted peak on the chromatogram are run on a 12% Tris Glycine gel, as above, to identify the fractions with GST-cMET. Fractions are pooled and the OD280 is read with the column buffer used as the blank.
A Kinase reaction Buffer is prepared as follows:
When the assay is carried out, freshly add:
The HTRF buffer contains:
1. […] 2. […] Then incubate the plate at RT for 30 min. 3.
Use Biomek FX to add 20 μl ATP and Gastrin working solution to the assay plate to start reaction, incubate the plate at RT for 1 h. 4.
KM ATP, KM gastrin for various enzymes were determined by HTRF/^33P labeling and HTRF methods.
On the technique in general: Time-resolved FRET reads energy transfer from a long-lived donor to a nearby acceptor.

T2 sequence (P16056 25-1379): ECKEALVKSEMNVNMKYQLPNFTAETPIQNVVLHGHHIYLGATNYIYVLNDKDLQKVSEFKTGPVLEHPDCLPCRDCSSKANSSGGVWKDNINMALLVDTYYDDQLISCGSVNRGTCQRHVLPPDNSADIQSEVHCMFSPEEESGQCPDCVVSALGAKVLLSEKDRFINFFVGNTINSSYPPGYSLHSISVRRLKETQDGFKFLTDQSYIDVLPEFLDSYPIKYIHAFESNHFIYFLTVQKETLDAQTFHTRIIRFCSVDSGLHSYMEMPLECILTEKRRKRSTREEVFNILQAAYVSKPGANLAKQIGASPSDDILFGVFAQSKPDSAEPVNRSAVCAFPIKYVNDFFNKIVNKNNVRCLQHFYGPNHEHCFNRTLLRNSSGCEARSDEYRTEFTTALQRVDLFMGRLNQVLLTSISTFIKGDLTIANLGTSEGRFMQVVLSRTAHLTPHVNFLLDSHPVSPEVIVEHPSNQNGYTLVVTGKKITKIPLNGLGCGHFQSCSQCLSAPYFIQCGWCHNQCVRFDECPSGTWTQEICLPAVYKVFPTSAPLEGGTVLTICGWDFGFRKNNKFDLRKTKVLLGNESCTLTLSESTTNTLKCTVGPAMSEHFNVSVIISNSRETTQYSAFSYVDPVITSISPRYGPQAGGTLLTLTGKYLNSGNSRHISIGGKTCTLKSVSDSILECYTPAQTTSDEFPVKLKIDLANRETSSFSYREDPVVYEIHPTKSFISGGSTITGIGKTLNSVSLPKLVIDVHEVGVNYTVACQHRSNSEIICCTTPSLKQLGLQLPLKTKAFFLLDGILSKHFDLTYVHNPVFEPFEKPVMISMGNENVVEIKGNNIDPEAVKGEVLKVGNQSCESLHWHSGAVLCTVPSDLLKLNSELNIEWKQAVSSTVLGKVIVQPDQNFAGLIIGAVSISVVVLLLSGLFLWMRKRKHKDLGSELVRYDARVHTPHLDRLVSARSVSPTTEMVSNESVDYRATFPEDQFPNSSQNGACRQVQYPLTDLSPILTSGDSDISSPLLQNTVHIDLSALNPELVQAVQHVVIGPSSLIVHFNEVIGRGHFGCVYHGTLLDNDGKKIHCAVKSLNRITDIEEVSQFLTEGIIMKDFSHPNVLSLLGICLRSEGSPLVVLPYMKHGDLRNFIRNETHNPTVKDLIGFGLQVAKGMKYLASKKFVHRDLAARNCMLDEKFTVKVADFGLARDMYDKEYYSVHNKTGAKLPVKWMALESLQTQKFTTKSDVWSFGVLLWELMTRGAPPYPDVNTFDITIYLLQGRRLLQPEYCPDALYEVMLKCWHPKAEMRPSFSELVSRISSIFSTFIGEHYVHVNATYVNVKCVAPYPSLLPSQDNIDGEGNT
T1 sequence (P08581 25-1390): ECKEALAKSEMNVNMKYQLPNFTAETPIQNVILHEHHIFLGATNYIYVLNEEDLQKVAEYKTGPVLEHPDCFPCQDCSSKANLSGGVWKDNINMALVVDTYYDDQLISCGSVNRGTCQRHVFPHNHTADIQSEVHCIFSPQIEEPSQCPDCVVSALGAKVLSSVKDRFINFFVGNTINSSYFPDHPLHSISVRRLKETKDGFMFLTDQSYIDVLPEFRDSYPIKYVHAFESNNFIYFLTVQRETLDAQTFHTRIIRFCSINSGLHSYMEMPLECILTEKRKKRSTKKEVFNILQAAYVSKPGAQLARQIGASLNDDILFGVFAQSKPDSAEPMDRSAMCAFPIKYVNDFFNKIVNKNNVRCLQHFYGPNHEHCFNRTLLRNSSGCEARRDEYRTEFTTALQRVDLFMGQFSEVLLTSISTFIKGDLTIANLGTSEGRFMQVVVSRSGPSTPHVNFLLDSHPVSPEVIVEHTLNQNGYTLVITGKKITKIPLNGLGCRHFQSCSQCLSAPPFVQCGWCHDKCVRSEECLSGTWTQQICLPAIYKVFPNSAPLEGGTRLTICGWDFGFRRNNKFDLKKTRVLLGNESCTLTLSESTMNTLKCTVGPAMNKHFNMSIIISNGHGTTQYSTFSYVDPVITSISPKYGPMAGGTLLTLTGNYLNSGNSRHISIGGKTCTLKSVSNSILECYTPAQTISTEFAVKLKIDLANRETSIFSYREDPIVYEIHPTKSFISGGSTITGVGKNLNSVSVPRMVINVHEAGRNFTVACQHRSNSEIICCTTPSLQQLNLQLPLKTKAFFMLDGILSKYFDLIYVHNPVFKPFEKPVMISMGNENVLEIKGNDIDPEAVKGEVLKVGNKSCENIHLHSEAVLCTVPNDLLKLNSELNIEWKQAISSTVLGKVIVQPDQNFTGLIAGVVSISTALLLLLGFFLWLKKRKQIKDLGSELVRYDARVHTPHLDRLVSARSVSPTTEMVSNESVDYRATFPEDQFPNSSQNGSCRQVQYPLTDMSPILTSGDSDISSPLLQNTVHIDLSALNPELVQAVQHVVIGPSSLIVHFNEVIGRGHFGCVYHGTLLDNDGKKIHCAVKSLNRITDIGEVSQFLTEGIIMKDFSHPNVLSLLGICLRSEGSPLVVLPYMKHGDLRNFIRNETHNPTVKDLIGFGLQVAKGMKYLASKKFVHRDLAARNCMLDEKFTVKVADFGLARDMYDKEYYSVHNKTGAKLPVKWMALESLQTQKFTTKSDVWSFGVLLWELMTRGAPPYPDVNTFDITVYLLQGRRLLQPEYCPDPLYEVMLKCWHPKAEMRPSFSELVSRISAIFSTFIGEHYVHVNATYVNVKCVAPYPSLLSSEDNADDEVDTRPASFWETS
T3 sequence (P08581 1058-1365): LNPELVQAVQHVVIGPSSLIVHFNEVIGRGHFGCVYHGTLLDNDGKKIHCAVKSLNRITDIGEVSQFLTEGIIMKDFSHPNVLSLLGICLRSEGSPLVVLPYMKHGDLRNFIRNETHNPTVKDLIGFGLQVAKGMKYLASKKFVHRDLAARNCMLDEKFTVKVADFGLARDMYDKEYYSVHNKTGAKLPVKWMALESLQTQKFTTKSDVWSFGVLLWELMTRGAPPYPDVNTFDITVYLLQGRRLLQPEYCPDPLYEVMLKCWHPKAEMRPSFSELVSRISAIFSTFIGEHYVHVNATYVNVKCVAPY

Turning to `c1ccc(-c2ccc3nnc(COc4ccnc5ccccc45)n3n2)cc1` [Example 2, 4-((6-phenyl-[1,2,4]triazolo[4,3-b]pyridazin-3-yl)methoxy)quinoline], the pIC50 on c-Met [1] and against c-Met [2] was over 6.00 in each case.

Compound `CNC(=O)c1ccc(-c2ccc3nnc(COc4ccnc5cc(OC)ccc45)n3n2)s1` [Example 30, 5-(3-((7-methoxyquinolin-4-yloxy)methyl)-[1,2,4]triazolo[4,3-b]pyridazin-6-yl)-N-methylthiophene-2-carboxamide] gave a pIC50 in experiment [3] of over 6.30.

Consider `COc1cnc2c(NCc3nnc4ccc(-c5cc(C(=O)O)no5)nn34)ccnc2c1` [Example 36, 5-(3-((7-methoxy-1,5-naphthyridin-4-ylamino)methyl)-[1,2,4]triazolo[4,3-b]pyridazin-6-yl)isoxazole-3-carboxylic acid], for which the results for the pIC50 (in experiment [3]; on c-Met [1]; on c-Met [2]) were over 6.30, over 6.00 and over 6.00, respectively.

As to `COc1cnc2c(NCc3nnc4ccc(-c5cc(CO)no5)nn34)ccnc2c1` [Example 37, (5-(3-((7-methoxy-1,5-naphthyridin-4-ylamino)methyl)-[1,2,4]triazolo[4,3-b]pyridazin-6-yl)isoxazol-3-yl)methanol], the values for the pIC50 (in experiment [3]; at c-Met [1]; on c-Met [2]) were over 6.30, over 6.00 and over 6.00, respectively.

As to `COc1ccc2c(OCc3nnc4ccc(-c5ccc(N(C)C)nc5)nn34)ccnc2c1` [Example 43, 5-(3-((7-methoxyquinolin-4-yloxy)methyl)-[1,2,4]triazolo[4,3-b]pyridazin-6-yl)-N,N-dimethylpyridin-2-amine], the pIC50 at c-Met [1] and on c-Met [2] was over 6.00 throughout.

As to `c1ccc(-c2ccc3nnc(Cc4ccc5c(c4)OCO5)n3n2)cc1` [Example 326], the pKi in experiment [3] is 6.40.

`Fc1cc(-c2ccccc2)cn2c(Cc3ccc4ncccc4c3)nnc12` [Example 437, 6-((8-fluoro-6-phenyl-[1,2,4]triazolo[4,3-a]pyridin-3-yl)methyl)quinoline] gave a pKi in experiment [3] of 7.44.

Turning to `C[C@H](c1nnc2c(F)cc(-c3cnn(CCO)c3)cn12)n1ccc2ncccc2c1=O` [Example 509, (R)-6-(1-(8-fluoro-6-(1-(2-hydroxyethyl)-1H-pyrazol-4-yl)-[1,2,4]triazolo[4,3-a]pyridin-3-yl)ethyl)-1,6-naphthyridin-5(6H)-one], the pKi in experiment [3] was 8.49. Compared with the last compound, the pKi is 1.05 log units higher.

In experiment [3], `Cc1csc(-c2cc(F)c3nnc([C@@H](C)n4ccc5ncccc5c4=O)n3c2)c1` [Example 511, (R)-6-(1-(8-fluoro-6-(4-methylthiophen-2-yl)-[1,2,4]-triazolo[4,3-a]pyridin-3-yl)ethyl)-1,6-naphthyridin-5(6H)-one] had a pKi of 9.30.

Take `Cc1cc(-c2cc(F)c3nnc([C@@H](C)n4ccc5ncc(-c6cnn(C)c6)cc5c4=O)n3c2)on1` [Example 527, 6-((R)-1-(8-fluoro-6-(3-methylisoxazol-5-yl)-[1,2,4]-triazolo[4,3-a]pyridin-3-yl)ethyl)-3-(1-methyl-1H-pyrazol-4-yl)-1,6-naphthyridin-5(6H)-one]: the pKi in experiment [3] is 9.52. This pKi lies 0.22 log units higher than the previous one.
